Measured values as given in patent publication US20230167058A1, “GPX4 COMPOUNDS AND COMPOSITIONS AND METHODS OF TREATMENT USING SAME” (THE TRUSTEES OF COLUMBIA UNIVERSITY IN THE CITY OF NEW YORK, priority 2020, published 2023).

Target: T1, GPX4 (Homo sapiens, UniProt P36969, U73C)
T1 sequence (P36969 33-197 U73C): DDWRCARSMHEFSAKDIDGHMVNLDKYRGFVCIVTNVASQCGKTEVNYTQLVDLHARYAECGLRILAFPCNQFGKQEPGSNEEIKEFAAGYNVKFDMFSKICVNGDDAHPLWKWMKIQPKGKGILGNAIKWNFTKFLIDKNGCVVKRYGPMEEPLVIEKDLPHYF
Test: Microscale thermophoresis (MST) binding to GPX4
Conditions: not given
Excerpt: (§1) Therefore, we applied a strategy of computer-facilitated design, based on MD simulation (Desmond) and Glide docking (Schrödinger Suite), and experimental high-throughput screening of a lead-optimized compound library of 10,000 compounds (FIGS. 6A-6E). All candidates were first evaluated by thermal denaturation assay and microscale thermophoresis (MST) to validate binding to GPX4 (Table 1). Surface plasmon resonance (SPR) and isothermal titration calorimetry (ITC) were then applied to precisely measure their binding kinetics and affinities, while ^1H-^15N heteronuclear single-quantum coherence (HSQC) NMR spectroscopy informed us of binding sites. We optimized two GPX4-specific activity assays to examine enzymatic inhibitory effects of hit compounds—LC-MS-based substrate/product monitoring and an NADPH-coupled assay. […] Some L880 analogues were also synthesized and tested (Table 2).

| Structure (SMILES) | Kd |
| --- | --- |
| CC(C)(C(=O)[O][Sn]([CH3])([CH3])[CH3])N1C(=O)c2ccccc2C1=O [LOC880] | 6.7 µM |

Same assay, conditions: Table 1

| MST | Structure (SMILES) |
| --- | --- |
| positive | CN(C)c1ccc(/C=C2\SC(N3CCN(CCO)CC3)=NC2=O)cc1 [LOC957] |
| positive | C=CCOc1ccc(C(=O)N2CCCCCC2)cc1 [LOC577] |
| positive | CN(C)C(=O)c1ccc2c(c1)NC(=O)C1CCCN21 (stereo not shown) [LOC4873] |

The next lines start with the compound.

| Structure (SMILES) | MST |
| --- | --- |
| O=C(NCC1CCCN2CCCCC12)C(F)(F)F (stereo not shown) [LOC5893] | positive |
| CC(C)(C(=O)[O][Sn]([CH3])([CH3])[CH3])N1C(=O)c2ccccc2C1=O [LOC880] | positive |

Same assay, conditions: Table 1; read-out: MST Kd

| Kd | Structure (SMILES) |
| --- | --- |
| 6.8 µM | CN(C)c1ccc(/C=C2\SC(N3CCN(CCO)CC3)=NC2=O)cc1 [LOC957] |
| 5.4 µM | C=CCOc1ccc(C(=O)N2CCCCCC2)cc1 [LOC577] |
| 40 µM | CN(C)C(=O)c1ccc2c(c1)NC(=O)C1CCCN21 (stereo not shown) [LOC4873] |

| Structure (SMILES) | Kd |
| --- | --- |
| O=C(NCC1CCCN2CCCCC12)C(F)(F)F (stereo not shown) [LOC5893] | 100 µM |

Target: T2, GPX4^U46C (Homo sapiens, UniProt P36969, U73C)
T2 construct: His6 (N, cleaved yes); made in house; host or cells: E. coli BL21-Gold (DE3), M9 minimal medium with 15NH4Cl
T2 sequence (P36969 33-197 U73C): T1 sequence (P36969 33-197 U73C)
Test: 1H,15N-HSQC-NMR of 15N-labeled GPX4^U46C
Format: binding
Conditions: Table 1
Experimental: Uniformly ^15N-labeled GPX4^U46C protein with N-terminal His6 tag was prepared. The GPX4^U46C construct was expressed in E. coli BL21-Gold (DE3) cells (Stratagene) growing at 37° C. in M9 minimal medium supplemented with […] ampicillin, 2 mM MgSO4, […] CaCl2, 1× trace metals, 1×RPMI 1640 vitamin stock (Sigma-Aldrich, #R7256), […] biotin, […] thiamine hydrochloride, 4 g/L glucose, and 3 g/L ^15NH4Cl as the sole nitrogen source. The following induction, lysis, and protein purification was the same as for the non-isotope-labeled His-tagged GPX4^U46C described above, except the N-terminal His6 tag was removed by adding 5 U/mg thrombin before FPLC purification. The thrombin reaction was after a buffer exchange to remove imidazole, which otherwise would inhibit thrombin, and was allowed to proceed overnight at 4° C.
Then the protein solution was concentrated to 50 μM before testing. For HSQC of GPX4 with other inhibitors, 50 μM ^15N-labeled GPX4 was preincubated with 800 μM inhibitor to be tested for […] at room temperature in buffer (100 mM MES, 5 mM TCEP, pH 6.5). D20 (10%) was then added for the field frequency lock. The ^1H-^15N HSQC spectra were collected on Bruker Avance III 500 Ascend (500 MHz) spectrometers (Columbia University) at 298K. The ^1H carrier frequency was positioned at the water resonance. The ^15N carrier frequency was positioned at 115 ppm. The spectral width in the ^1H dimension was 7,500 Hz and the width in the ^15N dimension was 1,824.6 Hz. Suppression of water signal was accomplished using the WATERGATE sequence. Heteronuclear decoupling was accomplished using GARP decoupling scheme.

| Binding site | HSQC assay | Structure (SMILES) |
| --- | --- | --- |
| Allosteric Site 2 | positive | CN(C)c1ccc(/C=C2\SC(N3CCN(CCO)CC3)=NC2=O)cc1 [LOC957] |
| Allosteric Site 2 | positive | C=CCOc1ccc(C(=O)N2CCCCCC2)cc1 [LOC577] |
| Allosteric Site 2 | positive | CN(C)C(=O)c1ccc2c(c1)NC(=O)C1CCCN21 (stereo not shown) [LOC4873] |

Second part, the compound before the results:

| Structure (SMILES) | Binding site | HSQC assay |
| --- | --- | --- |
| O=C(NCC1CCCN2CCCCC12)C(F)(F)F (stereo not shown) [LOC5893] | Allosteric Site 2 | positive |
| CC(C)(C(=O)[O][Sn]([CH3])([CH3])[CH3])N1C(=O)c2ccccc2C1=O [LOC880] | Allosteric Site 2 | positive |

Target: T2, GPX4^U46C
Test: Thermal shift assay (screen of LOC library)
Format: binding
Conditions: Table 1
Experimental: To fully utilize the versatility shown by the […] site to accommodate structurally diverse compounds, we applied thermal shift assay to screen 9,719 compounds in the Lead-Optimized-Compound (LOC) library for in vitro binders of GPX4^U46C, which would shift the melting temperature of GPX4^U46C (|ΔTm|>2° C., FIG. 12D) (Kaplan et al. 2015).
Since the binding of small molecules may alter the thermostability of protein, we applied thermal shift assay to screen the LOC library, which determined binding of ligand from the change of the unfolding transition temperature (ΔTm) obtained in the presence of ligands relative to that obtained in the absence of ligands (Kaplan et al. 2015; Lo et al. 2004). For higher throughput purpose, we adapted the assay on 384-well PCR plate. With the assistance of Biomek Automated Liquid Handler (Beckman), 2 μl 10 mM stock solution (in 100% DMSO) of the each compound was transferred from 384-well library plates to 38 μl FPLC buffer (100 mM Tris pH 8.0, 300 mM NaCl, 3 mM TCEP) and mixed in each well of a 384-well mother plate. The compound solution was then dispensed, 12 μl per well, into three 384-well PCR plates. GPX4^U46C protein and Sypro orange were manually added to the plate, with the final concentrations of 5 μM and 5×, respectively, to make a volume of 20 μl per well right before thermal shift analysis of the specific plate. The thermal shift assay was performed on the ViiA 7 Real-Time PCR system (Thermo Fisher) with the thermal protocol: 25° for 15 s, Increase temp to 99° at a rate of 0.05°/sec, 99° for 15 sec. The fluorescence was recorded and analyzed by Protein Thermal Shift™ software. The mean |ΔTm| value for the biological triplicates were calculated and used for hit identification.

| Thermal shift | Structure (SMILES) |
| --- | --- |
| positive | CN(C)c1ccc(/C=C2\SC(N3CCN(CCO)CC3)=NC2=O)cc1 [LOC957] |
| positive | C=CCOc1ccc(C(=O)N2CCCCCC2)cc1 [LOC577] |
| positive | CN(C)C(=O)c1ccc2c(c1)NC(=O)C1CCCN21 (stereo not shown) [LOC4873] |

The next lines start with the compound.

| Structure (SMILES) | Thermal shift |
| --- | --- |
| O=C(NCC1CCCN2CCCCC12)C(F)(F)F (stereo not shown) [LOC5893] | positive |
| CC(C)(C(=O)[O][Sn]([CH3])([CH3])[CH3])N1C(=O)c2ccccc2C1=O [LOC880] | positive |

Target: T3, GPX4 (Homo sapiens, UniProt P36969)
T3 sequence (P36969 1-170 isoform P36969-2): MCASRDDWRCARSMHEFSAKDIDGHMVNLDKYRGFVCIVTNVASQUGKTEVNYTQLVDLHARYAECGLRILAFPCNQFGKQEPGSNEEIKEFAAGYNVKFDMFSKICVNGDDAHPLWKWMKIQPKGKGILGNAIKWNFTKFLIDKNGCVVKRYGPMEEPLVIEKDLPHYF
Test: GPX4-specific enzymatic activity assay (LC-MS substrate/product, NADPH-coupled)
Format: biochemical
Conditions: not given
Excerpt: as §1, with “These x-ray structures enabled further optimization of current inhibitors and the design of novel inhibitors targeting various binding sites on GPX4. Therefore,” for “Therefore,”

| GPX4 enzymatic assay | Structure (SMILES) |
| --- | --- |
| positive | CN(C)c1ccc(/C=C2\SC(N3CCN(CCO)CC3)=NC2=O)cc1 [LOC957] |
| positive | CN(C)C(=O)c1ccc2c(c1)NC(=O)C1CCCN21 (stereo not shown) [LOC4873] |

| Structure (SMILES) | GPX4 enzymatic assay |
| --- | --- |
| CC(C)(C(=O)[O][Sn]([CH3])([CH3])[CH3])N1C(=O)c2ccccc2C1=O [LOC880] | positive |

Target: T1, GPX4
Test: Surface plasmon resonance (SPR)
Format: binding
Conditions: Table 1
Excerpt: as §1, with “These x-ray structures enabled further optimization of current inhibitors and the design of novel inhibitors targeting various binding sites on GPX4. Therefore,” for “Therefore,”

| SPR | Structure (SMILES) |
| --- | --- |
| positive | CN(C)c1ccc(/C=C2\SC(N3CCN(CCO)CC3)=NC2=O)cc1 [LOC957] |
| positive | CN(C)C(=O)c1ccc2c(c1)NC(=O)C1CCCN21 (stereo not shown) [LOC4873] |

| Structure (SMILES) | SPR |
| --- | --- |
| CC(C)(C(=O)[O][Sn]([CH3])([CH3])[CH3])N1C(=O)c2ccccc2C1=O [LOC880] | positive |
